Test results as given in the supplement of paper PMC10307832.

What was measured:
Experiment in all cases: relative viability (nuclei count vs DMSO), 5 days (fraction); higher = more cells survive
LCLC-97TM1 = test system: LCLC-97TM1
In short: (§1)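 Cells from lung cancer lines were seeded into 1536-well plates and, one day later, dosed by pin tool. Treatments were either a single drug or a fixed dose of an anchor drug with five library-drug doses (not always all listed) in √10 steps. After 5 days, nuclei were stained in a one-step fixation (final 0.05% Triton X-100, 1% formaldehyde, 1 ug/ml Hoechst) and counted on 4× images, and relative viability is the treated-to-vehicle nuclei ratio, as the median of duplicate plates.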

NCI-H1793 = test system: NCI-H1793
In short: as §1

LU99A = test system: LU99A
In short: as §1

NCI-H1666 = test system: NCI-H1666
In short: as §1

NCI-H460 = test system: NCI-H460
In short: as §1

NCI-H1915 = test system: NCI-H1915
In short: as §1

SK-LU-1 = test system: SK-LU-1
In short: as §1

NCI-H1944 = test system: NCI-H1944
In short: as §1

NCI-H1395 = test system: NCI-H1395
In short: as §1

A-427 = test system: A-427
In short: as §1

LXF-289 = test system: LXF-289
In short: as §1

NCI-H322M = test system: NCI-H322M
In short: as §1

SMILES: O=c1[nH]c2ccccc2n1C1CCN(CCCC(c2ccc(F)cc2)c2ccc(F)cc2)CC1 [Pimozide] + CC(=O)c1c(C)c2cnc(Nc3ccc(N4CCNCC4)cn3)nc2n(C2CCCC2)c1=O [Palbociclib] (partner 0.5 µM)
- relative viability (LCLC-97TM1; first compound 0.253 µM): 0.237
- relative viability (LCLC-97TM1; first compound 0.8 µM): 0.203
- relative viability (LCLC-97TM1; first compound 2.53 µM): 0.167
- relative viability (LCLC-97TM1; first compound 8 µM): 0.251
- relative viability (NCI-H1793; first compound 0.08 µM): 0.263
- relative viability (NCI-H1793; first compound 0.253 µM): 0.289
- relative viability (NCI-H1793; first compound 0.8 µM): 0.306
- relative viability (NCI-H1793; first compound 2.53 µM): 0.285
- relative viability (NCI-H1793; first compound 8 µM): 0.339
- relative viability (LU99A; first compound 0.08 µM): 0.407
- relative viability (LU99A; first compound 0.8 µM): 0.388
- relative viability (LU99A; first compound 2.53 µM): 0.421
- relative viability (LU99A; first compound 8 µM): 0.41
- relative viability (NCI-H1666; first compound 0.08 µM): 0.603
- relative viability (NCI-H1666; first compound 0.253 µM): 0.653
- relative viability (NCI-H1666; first compound 0.8 µM): 0.606
- relative viability (NCI-H1666; first compound 2.53 µM): 0.715
- relative viability (NCI-H1666; first compound 8 µM): 0.666
- relative viability (NCI-H460; first compound 0.08 µM): 0.137
- relative viability (NCI-H460; first compound 0.253 µM): 0.188
- relative viability (NCI-H460; first compound 0.8 µM): 0.139
- relative viability (NCI-H460; first compound 2.53 µM): 0.221
- relative viability (NCI-H460; first compound 8 µM): 0.184
- relative viability (NCI-H1915; first compound 0.08 µM): 0.435
- relative viability (NCI-H1915; first compound 0.253 µM): 0.498
- relative viability (NCI-H1915; first compound 2.53 µM): 0.501
- relative viability (NCI-H1915; first compound 8 µM): 0.477
- relative viability (SK-LU-1; first compound 0.08 µM): 0.384
- relative viability (SK-LU-1; first compound 0.253 µM): 0.533
- relative viability (SK-LU-1; first compound 0.8 µM): 0.404
- relative viability (SK-LU-1; first compound 2.53 µM): 0.377
- relative viability (SK-LU-1; first compound 8 µM): 0.348
- relative viability (NCI-H1944; first compound 0.08 µM): 0.333
- relative viability (NCI-H1944; first compound 2.53 µM): 0.253
- relative viability (NCI-H1944; first compound 8 µM): 0.334
- relative viability (NCI-H1395; first compound 0.08 µM): 0.579
- relative viability (NCI-H1395; first compound 0.253 µM): 0.655
- relative viability (NCI-H1395; first compound 0.8 µM): 0.538
- relative viability (NCI-H1395; first compound 2.53 µM): 0.623
- relative viability (NCI-H1395; first compound 8 µM): 0.578
- relative viability (A-427; first compound 0.08 µM): 0.531
- relative viability (A-427; first compound 0.253 µM): 0.57
- relative viability (A-427; first compound 0.8 µM): 0.462
- relative viability (A-427; first compound 2.53 µM): 0.457
- relative viability (A-427; first compound 8 µM): 0.497
- relative viability (LXF-289; first compound 0.08 µM): 0.588
- relative viability (LXF-289; first compound 0.253 µM): 0.607
- relative viability (LXF-289; first compound 0.8 µM): 0.571
- relative viability (LXF-289; first compound 2.53 µM): 0.574
- relative viability (LXF-289; first compound 8 µM): 0.586
- relative viability (NCI-H322M; first compound 0.08 µM): 0.416
- relative viability (NCI-H322M; first compound 0.253 µM): 0.475
- relative viability (NCI-H322M; first compound 0.8 µM): 0.483
- relative viability (NCI-H322M; first compound 2.53 µM): 0.492
- relative viability (NCI-H322M; first compound 8 µM): 0.505
